A word on the half-life: it is the time needed for the level to fall by half in the phase considered. Lower therefore signals fast loss. A word on the IC50: it is the midpoint of a concentration-inhibition curve. Higher therefore signals lower potency.

25 compounds from ChEMBL document CHEMBL1135368, “The discovery of small molecule carbamates as potent dual alpha(4)beta(1)/alpha(4)beta(7) integrin antagonists” (Bioorg Med Chem Lett, 2002) can be followed below.

Starred links: 1 amine or outer side, 2 acyl side, 3 side chain; linkers in the order of their positions; H or OH if unused. Residues, ends and D or L forms follow the SMILES beside them. Groups on a side chain read outwards from the residue. *: point of attachment. Pyrrolidide = C1CCN(*)C1; CO = O=C([*:1])[*:2]; Ms = CS(=O)(=O)*

In data set [1] the test system is Rattus norvegicus. As to the kind of experiment: Plasma clearance value at intravenous dose of 1 mg/kg (2 mg/kg po (cassette dosing)) in Dawley rat. Format: ADME, organism-based. More on the design: dose 1 mg/kg. Conditions: in vivo.
The nature of data set [2]: Tested for plasma half life period in rat (0-8 hr). The format is ADME, organism-based.
Data set [3] addresses T1, Integrin alpha-4/beta-7 (Homo sapiens, UniProt P13612+P26010).
T1 sequence (P13612 whole entry): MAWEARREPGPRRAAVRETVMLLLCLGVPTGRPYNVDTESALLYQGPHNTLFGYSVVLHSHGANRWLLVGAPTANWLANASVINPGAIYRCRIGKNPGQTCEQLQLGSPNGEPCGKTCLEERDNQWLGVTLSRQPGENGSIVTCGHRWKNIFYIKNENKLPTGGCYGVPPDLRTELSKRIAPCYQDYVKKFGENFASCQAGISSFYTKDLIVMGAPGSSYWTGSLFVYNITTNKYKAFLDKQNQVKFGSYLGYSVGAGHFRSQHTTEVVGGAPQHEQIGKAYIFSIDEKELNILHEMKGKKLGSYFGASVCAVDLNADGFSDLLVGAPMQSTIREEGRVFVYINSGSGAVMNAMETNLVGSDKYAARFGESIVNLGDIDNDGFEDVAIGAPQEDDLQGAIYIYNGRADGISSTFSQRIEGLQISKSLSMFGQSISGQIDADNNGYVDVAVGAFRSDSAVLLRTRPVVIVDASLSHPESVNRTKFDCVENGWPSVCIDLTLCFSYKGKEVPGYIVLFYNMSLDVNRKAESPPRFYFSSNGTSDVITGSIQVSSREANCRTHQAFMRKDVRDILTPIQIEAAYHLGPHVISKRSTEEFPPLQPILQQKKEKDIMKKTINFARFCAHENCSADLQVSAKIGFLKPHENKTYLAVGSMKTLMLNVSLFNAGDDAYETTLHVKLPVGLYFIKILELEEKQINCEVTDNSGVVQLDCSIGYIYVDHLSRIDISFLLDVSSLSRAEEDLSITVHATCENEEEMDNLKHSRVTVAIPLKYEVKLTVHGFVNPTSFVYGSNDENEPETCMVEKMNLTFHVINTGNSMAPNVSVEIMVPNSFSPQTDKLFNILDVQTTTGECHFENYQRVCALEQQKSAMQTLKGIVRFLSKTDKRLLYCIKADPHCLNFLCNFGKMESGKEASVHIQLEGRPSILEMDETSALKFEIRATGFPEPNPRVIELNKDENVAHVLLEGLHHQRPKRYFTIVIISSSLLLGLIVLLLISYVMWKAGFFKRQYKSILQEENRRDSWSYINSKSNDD
T1 sequence (P26010 whole entry): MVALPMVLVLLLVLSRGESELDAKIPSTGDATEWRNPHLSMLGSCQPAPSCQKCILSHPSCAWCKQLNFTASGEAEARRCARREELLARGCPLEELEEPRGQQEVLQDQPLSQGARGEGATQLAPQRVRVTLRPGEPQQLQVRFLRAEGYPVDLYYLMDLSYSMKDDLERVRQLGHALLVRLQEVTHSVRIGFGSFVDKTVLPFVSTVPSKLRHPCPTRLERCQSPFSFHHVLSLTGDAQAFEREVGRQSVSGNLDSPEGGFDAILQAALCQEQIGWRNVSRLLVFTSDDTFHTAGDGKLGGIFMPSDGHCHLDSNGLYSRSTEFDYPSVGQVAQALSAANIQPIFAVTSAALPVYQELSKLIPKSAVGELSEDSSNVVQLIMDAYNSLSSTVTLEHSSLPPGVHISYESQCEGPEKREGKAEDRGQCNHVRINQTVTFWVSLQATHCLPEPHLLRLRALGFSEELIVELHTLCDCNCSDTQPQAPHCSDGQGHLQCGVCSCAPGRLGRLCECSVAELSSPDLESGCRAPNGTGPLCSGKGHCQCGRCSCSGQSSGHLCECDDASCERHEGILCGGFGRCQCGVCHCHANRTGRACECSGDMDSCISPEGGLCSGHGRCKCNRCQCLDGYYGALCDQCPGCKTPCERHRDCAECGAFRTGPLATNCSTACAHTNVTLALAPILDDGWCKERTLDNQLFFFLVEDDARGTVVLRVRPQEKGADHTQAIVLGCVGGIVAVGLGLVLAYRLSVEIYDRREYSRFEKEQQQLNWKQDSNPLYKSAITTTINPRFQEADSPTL
In words: Alpha4-beta7 integrin binding affinity was determined in duplicate by a radioligand binding assay using [125I]-VCAM-Ig and a suspension of RPMI-8866 cells (a human B cell line alpha-4-beta-1-beta-7+). The format is cell-based.

Another data set has as its target Integrin alpha-4/beta-1 (Homo sapiens, UniProt P05556+P13612). In words: Alpha4-beta1 integrin binding affinity was assessed by measuring the reduction in binding of [125I]VCAM-Ig to a suspension of Jurkat cells (a human T cell line alpha-4-beta-1-beta-7). Format: cell-based.
Data set [4] addresses T1, Integrin alpha-4/beta-7. In words: Inhibition of [125I]VCAM-Ig binding to Alpha4-beta7 integrin of RPMI-8866 cells. The format is cell-based.
Data set [5] deals with T1, Integrin alpha-4/beta-7. In words: Inhibition of [125I]VCAM-Ig binding to Alpha4-beta7 integrin of RPMI-8866 cells at […] (inactive). The format is cell-based.
For data set [6], the system named is Rattus norvegicus. As to the kind of experiment: Plasma clearance value at intravenous dose of 1 mg/kg (2 mg/kg po (cassette dosing) in Dawley rat. The format is ADME, organism-based. More on the design: dose 1 mg/kg. Conditions: in vivo.

Integrin alpha-4/beta-1, sequence (P05556 whole entry, one chain of several): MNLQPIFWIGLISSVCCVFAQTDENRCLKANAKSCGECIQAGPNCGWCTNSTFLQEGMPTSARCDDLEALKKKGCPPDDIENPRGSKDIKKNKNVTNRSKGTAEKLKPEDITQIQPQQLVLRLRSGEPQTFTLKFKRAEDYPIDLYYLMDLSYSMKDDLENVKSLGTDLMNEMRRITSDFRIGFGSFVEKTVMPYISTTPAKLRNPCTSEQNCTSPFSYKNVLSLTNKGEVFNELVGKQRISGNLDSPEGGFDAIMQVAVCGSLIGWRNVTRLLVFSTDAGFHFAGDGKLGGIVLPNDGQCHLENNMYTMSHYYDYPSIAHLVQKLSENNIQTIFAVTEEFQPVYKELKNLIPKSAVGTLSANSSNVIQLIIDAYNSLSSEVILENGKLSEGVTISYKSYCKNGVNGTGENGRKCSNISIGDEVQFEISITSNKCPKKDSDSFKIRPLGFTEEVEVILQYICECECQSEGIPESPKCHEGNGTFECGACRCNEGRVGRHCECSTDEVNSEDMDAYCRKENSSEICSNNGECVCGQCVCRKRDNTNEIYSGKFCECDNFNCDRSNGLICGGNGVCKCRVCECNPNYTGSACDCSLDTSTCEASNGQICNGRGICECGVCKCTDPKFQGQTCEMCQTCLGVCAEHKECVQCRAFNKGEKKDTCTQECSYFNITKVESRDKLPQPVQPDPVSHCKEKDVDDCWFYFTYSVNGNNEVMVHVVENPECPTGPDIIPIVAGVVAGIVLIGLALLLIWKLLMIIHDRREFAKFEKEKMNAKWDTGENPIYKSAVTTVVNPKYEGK

In turn, `O=C(O)[C@H](Cc1ccc(OC(=O)N2CCCC2)cc1)NC(=O)[C@@H]1CCCN1S(=O)(=O)c1ccccc1` displayed a Clp in the data set with Rattus norvegicus [1] of 176 mL/min/kg. In data set [2], this compound had a half-life of 12 min. In addition, the half-inhibitory concentration (IC50) at Integrin alpha-4/beta-7 [3] stood at 2.83 nM; at Integrin alpha-4/beta-1, 0.14 nM.

As for `COc1ccc(C[C@H](NC(=O)[C@@H]2CCCN2S(=O)(=O)c2cc(Cl)cc(Cl)c2)C(=O)O)cc1`, the IC50 at Integrin alpha-4/beta-7 [4] is 362 nM; on Integrin alpha-4/beta-1, 0.37 nM.

`O=C(O)[C@H](Cc1ccc(OCc2nnn[nH]2)cc1)NC(=O)[C@@H]1CCCN1S(=O)(=O)c1cc(Cl)cc(Cl)c1`: the results for the IC50 on Integrin alpha-4/beta-7 [3] and at Integrin alpha-4/beta-1 were 166 nM and 0.21 nM, respectively.

`COCCOc1ccc(C[C@H](NC(=O)[C@@H]2CCCN2S(=O)(=O)c2cc(Cl)cc(Cl)c2)C(=O)O)cc1`: the results for the IC50 at Integrin alpha-4/beta-7 [3] and at Integrin alpha-4/beta-1 were 62.5 nM and 0.28 nM, respectively.

For `O=C(Oc1ccc(C[C@H](NC(=O)[C@@H]2CCCN2S(=O)(=O)c2cc(Cl)cc(Cl)c2)C(=O)O)cc1)C1CCCC1`, the 50% inhibitory concentration (IC50) at Integrin alpha-4/beta-7 [3] was 58.6 nM; on Integrin alpha-4/beta-1, 0.22 nM.

As for `CC(C)(C)OC(=O)COc1cccc(C[C@H](NC(=O)[C@]2(C)CCCN2S(=O)(=O)c2cc(Cl)cc(Cl)c2)C(=O)O)c1`, the IC50 entry is “Not Active” at Integrin alpha-4/beta-7 [5] and 0.41 nM at Integrin alpha-4/beta-1.

On to `O=C(O)[C@H](Cc1ccc(O)cc1)NC(=O)[C@@H]1CCCN1S(=O)(=O)c1cc(Cl)cc(Cl)c1`, for which the IC50 at Integrin alpha-4/beta-7 [4] was determined as 820 nM; at Integrin alpha-4/beta-1, 0.34 nM.

For the compound `CCCCOc1ccc(C[C@H](NC(=O)[C@@H]2CCCN2S(=O)(=O)c2cc(Cl)cc(Cl)c2)C(=O)O)cc1`, the results for the IC50 on Integrin alpha-4/beta-7 [4] and on Integrin alpha-4/beta-1 were 299 nM and 1.11 nM, respectively.

Take `CC(C)(C)Oc1cccc(C[C@H](NC(=O)[C@]2(C)CCCN2S(=O)(=O)c2cc(Cl)cc(Cl)c2)C(=O)O)c1`: the 50% inhibitory concentration (IC50) result at Integrin alpha-4/beta-7 [5] was “Not Active”; on Integrin alpha-4/beta-1, 1.79 nM.

For `O=C(Oc1ccc(C[C@H](NC(=O)[C@@H]2CCCN2S(=O)(=O)c2cc(Cl)cc(Cl)c2)C(=O)O)cc1)c1ccccc1`, the 50% inhibitory concentration (IC50) at Integrin alpha-4/beta-7 [3] came out at 43.2 nM; on Integrin alpha-4/beta-1, 0.45 nM.

Consider `O=C(Oc1ccc(C[C@H](NC(=O)[C@@H]2CCCN2S(=O)(=O)c2cc(Cl)cc(Cl)c2)C(=O)O)cc1)c1ccc[nH]1`, for which the half-maximal inhibitory concentration (IC50) on Integrin alpha-4/beta-7 [3] is 13 nM; on Integrin alpha-4/beta-1, 0.26 nM.

In the case of `CC(C)(C)Oc1ccc(C[C@H](NC(=O)[C@]2(C)CCCN2S(=O)(=O)c2cc(Cl)cc(Cl)c2)C(=O)O)cc1`, the IC50 on Integrin alpha-4/beta-7 [4] was determined as 647 nM; at Integrin alpha-4/beta-1, 0.27 nM.

As for `CC(C)(C)Oc1ccc(C[C@H](NC(=O)[C@@H]2CCCN2S(=O)(=O)c2cc(Cl)cc(Cl)c2)C(=O)O)cc1`, the 50% inhibitory concentration (IC50) at Integrin alpha-4/beta-7 [4] is 116 nM; at Integrin alpha-4/beta-1, 0.21 nM.

For `CC(C)N(C(=O)Oc1ccc(C[C@H](NC(=O)[C@]2(C)CCCN2S(=O)(=O)c2cc(Cl)cc(Cl)c2)C(=O)O)cc1)C(C)C`, the IC50 was found to be 62.4 nM at Integrin alpha-4/beta-7 [3] and 0.22 nM on Integrin alpha-4/beta-1.

As to `C[C@@]1(C(=O)N[C@@H](Cc2cccc(OC(=O)N3CCCC3)c2)C(=O)O)CCCN1S(=O)(=O)c1cc(Cl)cc(Cl)c1`, the IC50 result on Integrin alpha-4/beta-7 [5] is “Not Active”; on Integrin alpha-4/beta-1, 3.65 nM.

As for `O=C(O)[C@H](Cc1ccc(OCc2ccccc2)cc1)NC(=O)[C@@H]1CCCN1S(=O)(=O)c1cc(Cl)cc(Cl)c1`, the IC50 at Integrin alpha-4/beta-7 [3] is 849 nM; on Integrin alpha-4/beta-1 it was 1.94 nM.

On to `CCN(CC)C(=O)Oc1ccc(C[C@H](NC(=O)[C@]2(C)CCCN2S(=O)(=O)c2cc(Cl)cc(Cl)c2)C(=O)O)cc1`, for which the 50% inhibitory concentration (IC50) at Integrin alpha-4/beta-7 [3] worked out at 29.8 nM; on Integrin alpha-4/beta-1, 0.19 nM.

Turning to `C[C@@]1(C(=O)N[C@@H](Cc2ccc(OC(=O)N3CCOCC3)cc2)C(=O)O)CCCN1S(=O)(=O)c1cc(Cl)cc(Cl)c1`, the Clp with Rattus norvegicus [1] is 50 mL/min/kg. The half-maximal inhibitory concentration (IC50) at Integrin alpha-4/beta-7 [3] worked out at 3.51 nM; on Integrin alpha-4/beta-1 it was 0.13 nM.

For `CN(C(=O)Oc1ccc(C[C@H](NC(=O)[C@]2(C)CCCN2S(=O)(=O)c2cc(Cl)cc(Cl)c2)C(=O)O)cc1)c1ccccc1`, the Clp in the data set on Rattus norvegicus [1] turned out to be 38 mL/min/kg. This compound also had a half-life in data set [2] of 12 min. For the same compound, the IC50 at Integrin alpha-4/beta-7 [3] stood at 12.3 nM; on Integrin alpha-4/beta-1, 0.25 nM.

In the case of `CC(C)(C)OC(=O)COc1ccc(C[C@H](NC(=O)[C@@H]2CCCN2S(=O)(=O)c2cc(Cl)cc(Cl)c2)C(=O)O)cc1`, the IC50 was 211 nM on Integrin alpha-4/beta-7 [3] and 0.13 nM on Integrin alpha-4/beta-1.

On to `N#CCOc1ccc(C[C@H](NC(=O)[C@@H]2CCCN2S(=O)(=O)c2cc(Cl)cc(Cl)c2)C(=O)O)cc1`, for which the IC50 was found to be 246 nM on Integrin alpha-4/beta-7 [3] and 0.26 nM on Integrin alpha-4/beta-1.

Consider `O=C(O)[C@H](Cc1ccc(OC(=O)N2CCCC2)cc1)NC(=O)[C@@H]1CCCN1S(=O)(=O)c1cc(Cl)cc(Cl)c1`, for which the IC50 is 1.92 nM at Integrin alpha-4/beta-7 [3] and 0.13 nM on Integrin alpha-4/beta-1.

As for `C[C@@]1(C(=O)N[C@@H](Cc2ccc(OC(=O)N3CCCC3)cc2)C(=O)O)CCCN1S(=O)(=O)c1cc(Cl)cc(Cl)c1`, the Clp in the data set with Rattus norvegicus [6] amounted to 27 mL/min/kg. Further, the values for the IC50 at Integrin alpha-4/beta-7 [3] and on Integrin alpha-4/beta-1 were 5.26 nM and 0.17 nM, respectively.

Turning to `CC(=O)COc1ccc(C[C@H](NC(=O)[C@@H]2CCCN2S(=O)(=O)c2cc(Cl)cc(Cl)c2)C(=O)O)cc1`, the half-inhibitory concentration (IC50) at Integrin alpha-4/beta-7 [3] is 51.4 nM; on Integrin alpha-4/beta-1, 0.18 nM.

For `CS(=O)(=O)N1CCC[C@H]1C(=O)N[C@@H](Cc1ccc(OC(=O)N2CCCC2)cc1)C(=O)O` (Ms-Pro-Tyr([CO-Pyrrolidide])-OH), the IC50 is 4.4 nM on Integrin alpha-4/beta-7 [3] and 0.5 nM at Integrin alpha-4/beta-1.
